Our source for the TGI values is PubChem BioAssay (NCI).

Molecules are shown by their SMILES.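 In this assay, cells in 96-well plates receive the compound at five concentrations for 48 hours. Endpoints are linearly interpolated between the surrounding concentrations. TGI denotes the concentration required for complete inhibition of growth.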

Holding throughout (assay): NCI-60 cell line screen, 48 h
Experiment [1] deals with BT-549 breast.
Experiment [2] has as its system COLO 205 colon.
The subject of experiment [3] is HL-60(TB) leukemia.
Experiment [4] has as its system HT29 colon.
In experiment [5] the test system is K-562 leukemia.
The subject of experiment [6] is KM12 colon.
Experiment [7] has as its system M14 melanoma.
For experiment [8], the system named is MDA-N.
Experiment [9] has as its system MOLT-4 leukemia.
The test system of experiment [10] is SF-295 CNS.
The subject of experiment [11] is SK-MEL-5 melanoma.
Experiment [12] deals with T-47D breast.
Experiment [13] relates to U251 CNS.

Turning to `CC1=CC(=O)c2cccc(O)c2C1=O`, the TGI in [1] is 3.13 µM; in experiment [2] it was 4.36 µM; in experiment [3] it was 9.13 µM; in experiment [4], 10.4 µM; in experiment [5] it was 20 µM; in experiment [6] it was 25.3 µM. Also, the TGI in experiment [7] is 3.25 µM; in experiment [8], 3.34 µM; in experiment [9] it was above 28.3 µM; in [10], 27.7 µM; in experiment [11] it was 3.29 µM; in [12], 3.72 µM. In experiment [13], this compound yielded a TGI of 30.2 µM.
